This is an account of results in ChEMBL document CHEMBL1122588 (J Med Chem, 1984).

The structures appear in SMILES notation. Where “and” joins values, the source holds several entries; their conditions need not be identical. Equal entries are not always repeated.

One data set can be described thus: physchem. As to conditions: Intestine.
The next data set relates to L1210. In words: cells. Conditions: Mus musculus, L1210, 72 h, read-out: ID50.
Data set [1] deals with P388. Nature of the data set: animal or person. As to conditions: Mus musculus.
Description: In vivo antitumor activity in mice bearing P388 leukemia cells at an optimal dose of 100 mg/kg given on days 1,5,9.
Data set [2] deals with P388. Nature of the data set: animal or person. As to conditions: Mus musculus. The source holds these as a separate data set.
Description: In vivo antitumor activity in mice bearing P388 leukemia cells at an optimal dose of 20 mg/kg given on days 1,5,9.
The subject of data set [3] is P388. Nature of the data set: animal or person. Conditions: Mus musculus. The source holds these as a separate data set.
Description: In vivo antitumor activity in mice bearing P388 leukemia cells at an optimal dose of 45 mg/kg given on days 1,5,9.
In data set [4] the test system is P388. In words: animal or person. As to conditions: Mus musculus. This is another data set of the same source.
Description: In vivo antitumor activity in mice bearing P388 leukemia cells at an optimal dose of 30 mg/kg given on days 1,5,9
In data set [5] the test system is P388. Nature of the data set: animal or person. Conditions: Mus musculus. The source holds these as a separate data set.
Description: In vivo antitumor activity in mice bearing P388 leukemia cells at an optimal dose of 20 mg/kg given on days 1,5,9
In data set [6] the test system is P388. In words: animal or person. Conditions: Mus musculus. The source holds these as a separate data set.
Description: In vivo antitumor activity in mice bearing P388 leukemia cells at an optimal dose of 30 mg/kg given on days 1,5,9.
The test system of data set [7] is P388. Nature of the data set: animal or person. As to conditions: Mus musculus. The source holds these as a separate data set.
Description: In vivo antitumor activity in mice bearing P388 leukemia cells at an optimal dose of 13.3 mg/kg given on days 1,5,9.
The test system of data set [8] is P388. Nature of the data set: animal or person. As to conditions: Mus musculus. This is another data set of the same source.
Description: In vivo antitumor activity in mice bearing P388 leukemia cells at an optimal dose of 65 mg/kg given on days 1,5,9.
The subject of data set [9] is P388. In words: animal or person. Conditions: Mus musculus. The source holds these as a separate data set.
Description: In vivo antitumor activity in mice bearing P388 leukemia cells at an optimal dose of 45 mg/kg given on days 1,5,9
In data set [10] the test system is P388. In words: animal or person. Conditions: Mus musculus. The source holds these as a separate data set.
Description: In vivo antitumor activity in mice bearing P388 leukemia cells at an optimal dose of 50 mg/kg given on days 1,5,9
Data set [11] has as its system P388. Nature of the data set: animal or person. As to conditions: Mus musculus. The source holds these as a separate data set.
Description: In vivo antitumor activity in mice bearing P388 leukemia cells at an optimal dose of 100 mg/kg given on days 1,5,9
In data set [12] the test system is P388. In words: animal or person. Conditions: Mus musculus. The source holds these as a separate data set.
Description: In vivo antitumor activity in mice bearing P388 leukemia cells at an optimal dose of 300 mg/kg given on days 1,5,9.
Data set [13] concerns P388. Nature of the data set: animal or person. As to conditions: Mus musculus. This is another data set of the same source.
Description: In vivo antitumor activity in mice bearing P388 leukemia cells at an optimal dose of 65 mg/kg given on days 1,5,9

Description for L1210: In vitro concentration required to reduce the murine L1210 leukemia cells in cultures to 50% after a period of 72 hr.
Description for physchem: Compound was evaluated for its rate of absorption from the intestine and pKa value was determined, lower value indicate high absorption from gastrointestinal tract.

`CNC(=O)c1cccc2c(Nc3ccc(NS(C)(=O)=O)cc3OC)c3cccc(OC)c3nc12`: in “physchem”, the pKa – broadly, the pH at which an ionisable group is half protonated – came out at 6.55. The IC50 in the data set with L1210 was 17 nM. Further, the ILS (usually the gain in survival time of treated over control animals, in per cent) at 100 mg/kg in the data set on P388 [1] came to 34%. In the data set on Nucleic Acid, the Log K is 6.24 and 6.65. In the data set on P388 [2], this molecule displayed an ILS at 20 mg/kg of 139%.

Turning to `COc1cc(NS(C)(=O)=O)ccc1Nc1c2cccc(C)c2nc2c(C)cccc12`, the IC50 in the data set with L1210 was determined as 110 nM. In the data set on P388 [1], this molecule yielded an ILS at 100 mg/kg of 86%. In the data set on P388 [3], the ILS at 45 mg/kg stood at 135%. For the same molecule, the Log K in the data set on Nucleic Acid was 6.14 and 6.46.

For the molecule `COc1cc(NS(C)(=O)=O)ccc1Nc1c2ccccc2nc2c(OC)cccc12`, in the data set on L1210, the IC50 was 40 nM. The molecule also registered an ILS at 30 mg/kg with P388 [4] of 139%. The same molecule gave an ILS at 45 mg/kg with P388 [3] of 23%. In addition, in the data set with Nucleic Acid, the Log K is 5.94 and 6.

`COc1cc(NS(C)(=O)=O)ccc1Nc1c2cccc(C)c2nc2c(OC)cccc12` gave a pKa in the data set “physchem” of 6.9. Further, the IC50 with L1210 is 30 nM. The molecule also displayed an ILS at 30 mg/kg with P388 [4] of 109%. Besides, the ILS at 100 mg/kg with P388 [1] was 69%. For the same molecule, the Log K with Nucleic Acid was 6.21 and 6.19.

`COc1cc(NS(C)(=O)=O)ccc1Nc1c2cccc(C)c2nc2c(C(N)=O)cccc12` displayed a pKa in the data set “physchem” of 6.43. The IC50 in the data set with L1210 amounted to 47 nM. This molecule also came in with an ILS at 20 mg/kg with P388 [5] of 113%. The same molecule showed an ILS at 100 mg/kg in the data set with P388 [1] of 25%. In addition, the Log K in the data set on Nucleic Acid was 6.62 and 6.92.

For `COc1cc(NS(C)(=O)=O)ccc1Nc1c2ccccc2nc2c(C(N)=O)cccc12`, the IC50 in the data set on L1210 stood at 270 nM. Besides, the ILS at 100 mg/kg with P388 [1] stood at 11%. Moreover, in the data set on P388 [6], the ILS at 30 mg/kg was 113%.

In turn, `COc1cc(NS(C)(=O)=O)ccc1Nc1c2ccccc2nc2ccccc12` [AMSACRINE] registered an ILS at 13.3 mg/kg in the data set with P388 [7] of 78%. Further, in the data set on Nucleic Acid, the Log K is 5.57 and 5.65. Besides, the ILS at 65 mg/kg with P388 [8] is 63%.

Turning to `COc1cc(NS(C)(=O)=O)ccc1Nc1c2cccc(OC)c2nc2c(OC)cccc12`, in the data set on L1210, the IC50 is 65 nM. Moreover, the ILS at 100 mg/kg in the data set with P388 [1] came to 48%. The Log K in the data set with Nucleic Acid is 6.32 and 6.4. Further, the ILS at 45 mg/kg with P388 [9] was 99%.

`CNC(=O)c1cccc2c(Nc3ccc(NS(C)(=O)=O)cc3OC)c3cccc(C)c3nc12` [ASULACRINE] returned a pKa in “physchem” of 6.4. This molecule gave an ILS at 50 mg/kg in the data set with P388 [10] of 164%. The ILS at 20 mg/kg with P388 [5] was found to be 200%.

Take `CNC(=O)c1cccc2c(Nc3ccc(NS(C)(=O)=O)cc3OC)c3ccccc3nc12`: the IC50 with L1210 was determined as 270 nM. For the same molecule, the ILS at 100 mg/kg in the data set with P388 [11] came out at 128%. For the same molecule, the increase in life span (ILS) at 300 mg/kg with P388 [12] was determined as 127%.

With `COc1cc(NS(C)(=O)=O)ccc1Nc1c2ccccc2nc2c(C)cccc12`, the IC50 in the data set with L1210 was found to be 30 nM. In addition, in the data set with P388 [5], the ILS at 20 mg/kg is 143%. In the data set on P388 [13], the ILS at 65 mg/kg amounted to 47%. Moreover, in the data set with Nucleic Acid, the Log K was 6.03 and 5.96.
